Reference: patent US12692241B2, “Substituted triazine compound” (Nico Therapeutics, Inc., priority 2021, dated 2026)
Where two headings read alike, the source gives them in different places.

Assays:
[1] = biological target: human Ether-a-go-go Related Gene (hERG) channel (Homo sapiens, UniProt Q12809); assay: Safety pharmacological test: hERG channel inhibitory effect; assay type: biochemical
Method: Safety Pharmacological Test
As a safety pharmacological test, the human Ether-a-go-go Related Gene (hereinafter referred to as hERG) channel inhibitory effect was evaluated. The hERG channel inhibitory effect was evaluated using a modified method described in Combinatorial Chemistry & High Throughput Screening, 12, 1, 78-95 (2009).

[2] = system: 3T3 NRU phototoxicity; assay: In vitro phototoxicity test (3T3 NRU); assay type: cell-based; conditions: ICH S10 / OECD 432 in vitro 3T3 NRU phototoxicity test
From the text: In Vitro Phototoxicity Test
The evaluation of in vitro phototoxicity tests was based on ICH S10: Guidelines for Evaluation of Phototoxicity of Drugs (Notification No. 0521-1) and OECD guideline for testing of chemicals 432: In vitro 3T3 NRU phototoxicity test, 2004, which was described in the OECD report.

[3] = system: IL-1β production in THP-1 cells (LPS and ATP; NLRP3 inflammasome activation); assay: THP-1 IL-1β production inhibitory test; assay type: cell-based, human; conditions: PMA-differentiated THP-1 cells, LPS 50 ng/mL and ATP 5 mM, 2 hours, ELISA, read-out: IC50 (nM), IL-1β production
Procedure, shortened: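 THP-1 cells were differentiated with 50 ng/mL PMA for 2 days, then held 15 min at 37 °C. Cells were stimulated with 50 ng/mL LPS plus 5 mM ATP for 2 h, and supernatant IL-1β was measured by ELISA. IC50 came from sigmoidal Emax nonlinear regression.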

[4] = system: TNF-α production in THP-1 cells (LPS); assay: TNF-α production inhibitory test; assay type: cell-based; conditions: Homo sapiens; PMA-differentiated THP-1 cells, LPS 50 ng/mL, 2 hours, ELISA
Method: TNF-α Production Inhibitory Test
To THP-1 cells, 50 ng/mL PMA (phorbol myristate acetate, SIGMA, P1585) was added and then the cells were cultured at 37° C. for 2 days. The culture medium was exchanged with serum-free RPMI-1640 medium, and a compound known in concentration was added. The cells were cultured at 37° C. for 15 minutes. LPS (lipopolysaccharide, SIMGA, L2880) was added such that the final concentrations of them became 50 ng/mL. The cells were cultured at 37° C. for 2 hours. The supernatant was collected and the concentration of TNF-α was measured by ELISA (DuoSet ELISA human TNF-α, R&D Systems, DY201). The concentration of TNF-α was plotted against the logarithm of the concentration of the test compound, and the IC50 value was calculated by sigmoidal Emax model nonlinear regression analysis.

Chain of human Ether-a-go-go Related Gene (hERG) channel (Q12809 whole entry): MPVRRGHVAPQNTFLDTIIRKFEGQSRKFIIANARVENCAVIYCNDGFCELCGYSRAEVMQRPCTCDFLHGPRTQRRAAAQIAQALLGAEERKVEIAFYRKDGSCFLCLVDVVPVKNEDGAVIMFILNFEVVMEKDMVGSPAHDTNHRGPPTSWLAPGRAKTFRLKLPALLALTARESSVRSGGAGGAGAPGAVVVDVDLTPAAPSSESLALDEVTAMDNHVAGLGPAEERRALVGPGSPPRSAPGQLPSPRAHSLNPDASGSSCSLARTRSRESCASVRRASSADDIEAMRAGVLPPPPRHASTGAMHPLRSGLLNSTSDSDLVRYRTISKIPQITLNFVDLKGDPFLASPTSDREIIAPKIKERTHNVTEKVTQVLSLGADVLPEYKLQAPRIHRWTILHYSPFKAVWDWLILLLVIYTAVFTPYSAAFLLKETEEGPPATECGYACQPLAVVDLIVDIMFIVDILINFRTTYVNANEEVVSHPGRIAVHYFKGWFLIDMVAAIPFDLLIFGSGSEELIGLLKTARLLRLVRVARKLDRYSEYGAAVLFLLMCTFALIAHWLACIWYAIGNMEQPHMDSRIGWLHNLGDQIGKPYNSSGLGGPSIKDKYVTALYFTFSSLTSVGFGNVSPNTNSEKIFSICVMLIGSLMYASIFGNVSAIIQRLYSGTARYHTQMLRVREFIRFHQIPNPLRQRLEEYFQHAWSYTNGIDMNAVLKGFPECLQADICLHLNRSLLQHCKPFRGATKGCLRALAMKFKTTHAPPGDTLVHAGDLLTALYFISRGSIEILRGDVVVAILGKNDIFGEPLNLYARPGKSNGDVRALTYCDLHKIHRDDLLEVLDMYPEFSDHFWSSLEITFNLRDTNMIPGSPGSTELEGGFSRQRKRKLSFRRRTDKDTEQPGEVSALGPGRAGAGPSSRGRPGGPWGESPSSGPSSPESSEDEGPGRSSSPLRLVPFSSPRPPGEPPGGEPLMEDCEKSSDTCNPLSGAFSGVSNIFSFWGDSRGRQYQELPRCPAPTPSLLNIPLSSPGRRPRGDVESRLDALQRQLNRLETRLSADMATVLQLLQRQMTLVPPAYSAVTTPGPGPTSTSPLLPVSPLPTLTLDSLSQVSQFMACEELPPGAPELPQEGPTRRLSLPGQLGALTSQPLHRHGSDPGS

IC50 [3] [nM] | SMILES | IC50 [1] [µM] | phototoxic effect [2] | IC50 ([3]; Homo sapiens, THP-1, 2 h) [nM] | IC50 [4] [µM]
– | Cc1nc(N[C@@H]2CCCC[C@H]2N)nnc1-c1ccc(C(F)(F)F)cc1O [Example 132, 2-(3-{[(1R,2R)-2-aminocyclohexyl]amino}-5-methyl-1,2,4-triazin-6-yl)-5-(trifluoromethyl)phenol] | ≥ 10 | no phototoxic effect | 15 | ≥ 10
– | COc1ccc(-c2nnc(N[C@@H]3CCCC[C@H]3O)nc2C)c(O)c1 [Example 59, 2-(3-{[(1R,2R)-2-hydroxycyclohexyl]amino}-5-methyl-1,2,4-triazin-6-yl)-5-methoxyphenol] | ≥ 10 | no phototoxic effect | 14 | ≥ 10
– | Cc1nc(N[C@@H]2CCCC[C@H]2O)nnc1-c1ccc(OC(F)F)cc1O [Example 131, 5-(difluoromethoxy)-2-(3-{[(1R,2R)-2-hydroxycyclohexyl]amino}-5-methyl-1,2,4-triazin-6-yl)phenol] | ≥ 10 | no phototoxic effect | 9.5 | ≥ 10
– | Cc1nc(N[C@@H]2CCC[C@H](O)C2)nnc1-c1ccc(C(F)(F)F)cc1O [Example 75, 2-(3-{[(1R,3S)-3-hydroxycyclohexyl]amino}-5-methyl-1,2,4-triazin-6-yl)-5-(trifluoromethyl)phenol] | ≥ 10 | no phototoxic effect | 6.5 | ≥ 10
1.5 | Cc1nc(N[C@@H]2CCCN(C)C2)nnc1-c1ccc(C(F)(F)F)cc1O [Example 164] | ≥ 10 | no phototoxic effect | – | ≥ 10
